System: BaF3 BRAF-KIAA1549 fusion cells
Assay: BaF3 BRAF-KIAA1549 fusion cell proliferation assay
Format: cell-based
Conditions: Mus musculus, BaF3, 96 h, read-out: IC50, inhibition of cell growth, BaF3-BRAF:KIAA1549 Fusion
Procedure: Retroviral Production: The BRAF-KIAA1549 fusion mutant was subcloned into pMXs-IRES-Blasticidin (RTV-016, Cell Biolabs, San Diego, CA). […]. Briefly, HEK 293T cells were plated in Poly-D-lysine coated 6-well plate (2.5×10^5 cells per well) and incubated overnight. The next day, retroviral plasmids (1 μg of BRAF-KIAA fusion mutant, 0.32 μg of pCMV-Gag-Pol and 0.165 μg pCMV-VSV-G) were mixed in 300 μL of Optimem (31985, Life Technologies). The mixture was incubated at room temperature for 5 minutes and then added to Optimem containing transfection reagent Lipofectamine (11668, Invitrogen) and incubated for 20 minutes. The mixture was then added dropwise to HEK 293T cells. The next day the medium was replaced with fresh culture medium and retrovirus was harvested at 24 hours.
Generation of BRAF-KIAA1549 fusion stable cell line: BaF3 cells were plated in V-bottom 96 well plate (COSTAR #3894) in 80 μL of RPMI/10% FBS and 0.01 ng/mL mouse IL-3, supplemented with 8 μg/mL polybrene (4×10^4 cells/well). Cells were transduced with 20 μL of BRAF-KIAA1549 fusion viral supernatant by centrifuging for 30 minutes at 1000 rpm. Cells were placed in a 37 °C incubator overnight. Next day 100 μL of RPMI/10% FBS and 0.01 ng/mL mouse IL-3 was added. After 24 hours, 100 μL of cells were transferred to a 24 well plate containing 900 μL of RPMI/10% FBS and 15 μg/mL Blasticidin. Contents of the 24 well plate were sampled for cell viability via CellTiterGlo (Promega) over a 2-week period.
Assay for cell proliferation: BaF3 BRAF-KIAA1549 fusion cells were resuspended at 1.5×10^5 c/mL in RPMI containing 10% Heat Inactivated FBS, 1% L-glutamine and dispensed in duplicate ([…]) into 384 well plates. To determine the effect of compound on cell proliferation, BaF3 BRAF-KIAA1549 fusion cells were incubated for 96 hours in the presence of vehicle control (DMSO) or compound at varying concentrations. Inhibition of cell growth was determined by luminescent quantification (Envision by Perkin Elmer) of intracellular ATP content using CellTiterGlo (Promega), according to the protocol provided by the manufacturer. To determine the IC50 values, the vehicle-treated cells were normalized as viable cells and analyzed using the CDD Vault, Collaborative Drug Discovery, Burlingame, CA (the Levenberg-Marquardt algorithm; Levenberg, K, […]; Marquardt, D., 1963).
Table A assigns each compound a code for potency in the BaF3 BRAF-KIAA1549 fusion cell proliferation assay: A, B, C, or D. According to the code, A represents an IC50 value<20 nM; B represents an IC50 value≥20 nM and <100 nM; C represents an IC50 value≥100 nM and <500 nM; and D represents an IC50 value≥500 nM.

CNc1cc2ncc(-c3cc(NC(=O)c4cc(C(F)(F)F)ccn4)ccc3C)cc2cn1 [compound 1]
IC50: < 20 nM

CNc1cc2ncc(-c3cc(NC(=O)c4ccnc(C(F)(F)F)c4)ccc3C)cc2cn1 [compound 2]
IC50: 20 to 100 nM

CNc1cc2ncc(-c3cc(NC(=O)c4cncc(C(F)(F)F)c4)ccc3C)cc2cn1 [compound 3]
IC50: < 20 nM

CNc1cc2ncc(-c3cc(NC(=O)c4cccc(N(C)C)c4)ccc3C)cc2cn1 [compound 4]
IC50: < 20 nM

CNc1cc2ncc(-c3cc(NC(=O)c4cc(C(F)(F)F)c(C)cn4)ccc3C)cc2cn1 [compound 5]
IC50: 20 to 100 nM

CNc1cc2ncc(-c3cc(NC(=O)c4nccc(C(F)(F)F)c4Cl)ccc3C)cc2cn1 [compound 6]
IC50: < 20 nM

CNc1cc2ncc(-c3cc(NC(=O)C[C@@H]4C[C@H](C(F)(F)F)CCO4)ccc3C)cc2cn1 [compound 7]
IC50: < 20 nM

CNc1cc2ncc(-c3cc(NC(=O)c4ccnc(C(F)F)c4)ccc3C)cc2cn1 [compound 8]
IC50: 20 to 100 nM

CNc1cc2ncc(-c3cc(NC(=O)c4ccnc(C(C)(F)F)c4)ccc3C)cc2cn1 [compound 9]
IC50: < 20 nM

CNc1cc2ncc(-c3cc(NC(=O)c4ccnc(C(C)(C)F)c4)ccc3C)cc2cn1 [compound 10]
IC50: < 20 nM

CNc1cc2ncc(-c3cc(NC(=O)c4cc(C(F)F)ccn4)ccc3C)cc2cn1 [compound 11]
IC50: 20 to 100 nM

CNc1cc2ncc(-c3cc(NC(=O)c4cc(C(C)(F)F)ccn4)ccc3C)cc2cn1 [compound 12]
IC50: 20 to 100 nM

CNc1cc2ncc(-c3cc(NC(=O)c4cc(C(C)(C)F)ccn4)ccc3C)cc2cn1 [compound 13]
IC50: 100 to 500 nM

CNc1cc2ncc(-c3cc(NC(=O)c4cc(C(C)(C)C#N)ccn4)ccc3C)cc2cn1 [compound 14]
IC50: < 20 nM

CNc1cc2ncc(-c3cc(NC(=O)c4cc(C5(C#N)CCC5)ccn4)ccc3C)cc2cn1 [compound 15]
IC50: 20 to 100 nM

CNc1cc2ncc(-c3cc(NC(=O)c4cc(C5(C#N)CC5)ccn4)ccc3C)cc2cn1 [compound 16]
IC50: < 20 nM

CNc1cc2ncc(-c3cc(NC(=O)c4ccnc(C5CC(F)(F)C5)c4)ccc3C)cc2cn1 [compound 17]
IC50: < 20 nM

CNc1cc2ncc(-c3cc(NC(=O)c4ccnc(C5(F)CC5)c4)ccc3C)cc2cn1 [compound 18]
IC50: < 20 nM

CNc1cc2ncc(-c3cc(NC(=O)c4cccc(N(C)C)c4)cnc3C)cc2cn1 [compound 19]
IC50: < 20 nM

CNc1cc2ncc(-c3cc(NC(=O)c4cc(C(F)(F)F)ccn4)cnc3C)cc2cn1 [compound 20]
IC50: < 20 nM

CNc1cc2ncc(-c3cc(NC(=O)c4cncc(C(F)(F)F)c4)cnc3C)cc2cn1 [compound 21]
IC50: 20 to 100 nM

CNc1cc2ncc(-c3cc(NC(=O)c4cc(C(F)F)ccn4)cnc3C)cc2cn1 [compound 22]
IC50: 20 to 100 nM

CNc1cc2ncc(-c3cc(NC(=O)c4cc(C(C)(F)F)ccn4)cnc3C)cc2cn1 [compound 23]
IC50: 20 to 100 nM

CNc1cc2ncc(-c3cc(NC(=O)c4ccnc(C(C)(C)F)c4)cnc3C)cc2cn1 [compound 24]
IC50: < 20 nM

CNc1cc2ncc(-c3cc(NC(=O)c4cc(C(F)(F)F)c(C)cn4)cnc3C)cc2cn1 [compound 25]
IC50: 20 to 100 nM

CNc1cc2ncc(-c3cc(NC(=O)c4nccc(C(F)(F)F)c4Cl)cnc3C)cc2cn1 [compound 26]
IC50: 20 to 100 nM

CNc1cc2ncc(-c3cc(NC(=O)c4ccnc(C(F)(F)F)c4)cnc3C)cc2cn1 [compound 27]
IC50: < 20 nM

CNc1cc2ncc(-c3cc(NC(=O)c4ccnc(C(F)F)c4)cnc3C)cc2cn1 [compound 28]
IC50: 100 to 500 nM

CNc1cc2ncc(-c3cc(NC(=O)c4ccnc(C(C)(F)F)c4)cnc3C)cc2cn1 [compound 29]
IC50: < 20 nM

CNc1cc2ncc(-c3cc(NC(=O)c4cc(C(C)(C)C#N)ccn4)cnc3C)cc2cn1 [compound 30]
IC50: 20 to 100 nM

CNc1cc2ncc(-c3cc(NC(=O)c4cc(C5(C#N)CCC5)ccn4)cnc3C)cc2cn1 [compound 31]
IC50: 20 to 100 nM

CNc1cc2ncc(-c3cc(NC(=O)c4cc(C5(C#N)CC5)ccn4)cnc3C)cc2cn1 [compound 32]
IC50: < 20 nM

CNc1cc2ncc(-c3cc(NC(=O)c4ccnc(C5(F)CC5)c4)cnc3C)cc2cn1 [compound 33]
IC50: < 20 nM

CNc1cc2ncc(-c3cc(NC(=O)c4ccnc(C5CC(F)(F)C5)c4)cnc3C)cc2cn1 [compound 34]
IC50: 20 to 100 nM

CNc1cc2ncc(-c3cc(NC(=O)C[C@@H]4C[C@H](C(F)(F)F)CCO4)cnc3C)cc2cn1 [compound 35]
IC50: 20 to 100 nM

CNc1cc2ncc(-c3cc(NC(=O)C[C@H]4C[C@H](C(F)(F)F)CCO4)cnc3C)cc2cn1 [compound 36]
IC50: 100 to 500 nM

CNc1cc2ncc(-c3cc(NC(=O)c4cc(C(C)(C)C#N)ccn4)c(F)cc3Cl)cc2cn1 [compound 37]
IC50: 20 to 100 nM

CNc1cc2ncc(-c3cc(NC(=O)c4cc(C(C)(C)C#N)ccn4)cc(F)c3C)cc2cn1 [compound 38]
IC50: 20 to 100 nM

CNc1cc2ncc(-c3cc(NC(=O)c4cc(C(C)(C)C#N)ccn4)cc(F)c3F)cc2cn1 [compound 39]
IC50: 20 to 100 nM

CNc1cc2ncc(-c3cc(NC(=O)c4cc(C(C)(C)C#N)ccn4)ccc3F)cc2cn1 [compound 40]
IC50: 20 to 100 nM

CNc1cc2ncc(-c3cc(NC(=O)c4cc(C(C)(C)C#N)ccn4)ccc3Cl)cc2cn1 [compound 41]
IC50: 20 to 100 nM

CNc1cc2ncc(-c3cc(NC(=O)c4cc(C(C)(C)C#N)ccn4)c(F)cc3C)cc2cn1 [compound 42]
IC50: 20 to 100 nM

CNc1cc2ncc(-c3cc(NC(=O)c4cc(C(C)(C)C#N)ccn4)c(F)cc3F)cc2cn1 [compound 43]
IC50: 20 to 100 nM

CNc1cc2ncc(-c3cc(NC(=O)c4cc(C(C)(C)C#N)ccn4)cc(F)c3Cl)cc2cn1 [compound 44]
IC50: 20 to 100 nM

CNc1cc2ncc(-c3ccc(F)c(NC(=O)c4cc(C(C)(C)C#N)ccn4)c3)cc2cn1 [compound 45]
IC50: 100 to 500 nM

CNc1cc2ncc(-c3cc(F)c(F)c(NC(=O)c4cc(C(C)(C)C#N)ccn4)c3)cc2cn1 [compound 46]
IC50: 100 to 500 nM

CNc1cc2ncc(-c3cc(F)cc(NC(=O)c4cc(C(C)(C)C#N)ccn4)c3)cc2cn1 [compound 47]
IC50: 100 to 500 nM

CNc1cc2ncc(-c3cc(NC(=O)c4cc(C(C)(C)C#N)ccn4)cc(Cl)c3C)cc2cn1 [compound 48]
IC50: > 500 nM

CNc1cc2ncc(-c3cc(NC(=O)c4cc(C(C)(C)C#N)ccn4)cnn3)cc2cn1 [compound 49]
IC50: < 20 nM

CNc1cc2ncc(-c3cc(NC(=O)c4cc(C(C)(C)C#N)ccn4)c(Cl)cc3C)cc2cn1 [compound 50]
IC50: 100 to 500 nM

CNc1cc2ncc(-c3cc(NC(=O)c4cc(C(C)(C)C#N)ccn4)c(F)c(F)c3C)cc2cn1 [compound 51]
IC50: > 500 nM

CNc1cc2ncc(-c3cc(NC(=O)c4nccc(C(F)(F)F)c4F)cnc3C)cc2cn1 [compound 52]
IC50: < 20 nM

CNc1cc2ncc(-c3cc(C(=O)Nc4cc(C(C)(C)C#N)ccn4)ccc3C)cc2cn1 [compound 53]
IC50: 20 to 100 nM

CNc1cc2ncc(-c3cc(NC(=O)c4ccnc(C(C)(C)C#N)c4)cnc3C)cc2cn1 [compound 55]
IC50: < 20 nM

CNc1cc2ncc(-c3cc(NC(=O)c4ccnc(C(C)(C)C#N)c4)ccc3C)cc2cn1 [compound 56]
IC50: 20 to 100 nM

CNc1cc2ncc(-c3cc(NC(=O)c4ccnc(C(C)C)c4)cnc3C)cc2cn1 [compound 57]
IC50: < 20 nM

CNc1ncc2cc(-c3cc(NC(=O)c4ccnc(C(C)(C)C)c4)cnc3C)cnc2n1 [compound 58]
IC50: 20 to 100 nM

CNc1cc2ncc(-c3cc(C(=O)Nc4cc(C(C)(C)C#N)ccn4)cnc3C)cc2cn1 [compound 59]
IC50: 20 to 100 nM

CNc1cc2ncc(-c3cc(NC(=O)c4cc(C(F)(F)F)c(F)cn4)cnc3C)cc2cn1 [compound 60]
IC50: < 20 nM

CNc1cc2ncc(-c3cc(NC(=N)c4cc(C(F)(F)F)ccn4)ccc3C)cc2cn1 [compound 61]
IC50: 100 to 500 nM

CNc1cc2ncc(-c3cc(NC(=O)CN4CCC[C@H](C(F)(F)F)C4)cnc3C)cc2cn1 [compound 62]
IC50: 20 to 100 nM

CNc1cc2ncc(-c3cc(NC(=O)CN4CCC[C@H](C(F)(F)F)C4)ccc3C)cc2cn1 [compound 63]
IC50: 20 to 100 nM

CNc1cc2ncc(-c3cc(NC(=N)c4cc(C(F)(F)F)ccn4)cnc3C)cc2cn1 [compound 64]
IC50: > 500 nM

Reference: patent US20260355169A1, “METHODS OF TREATING CANCERS USING ISOQUINOLINE OR 6-AZA-QUINOLINE DERIVATIVES” (Black Diamond Therapeutics, Inc., priority 2022, published 2026)
